Experimental data reported in PMC9679998 (ACS Chemical Biology, 2022).

Assays:
[1] = molecular target: T1, adenosine A1 receptor (A1AR) (Homo sapiens, UniProt P30542); assay: single-point [3H]DPCPX radioligand displacement at […] ([…])
T1 construct: gene ADORA1
T1 sequence (P30542 1-326): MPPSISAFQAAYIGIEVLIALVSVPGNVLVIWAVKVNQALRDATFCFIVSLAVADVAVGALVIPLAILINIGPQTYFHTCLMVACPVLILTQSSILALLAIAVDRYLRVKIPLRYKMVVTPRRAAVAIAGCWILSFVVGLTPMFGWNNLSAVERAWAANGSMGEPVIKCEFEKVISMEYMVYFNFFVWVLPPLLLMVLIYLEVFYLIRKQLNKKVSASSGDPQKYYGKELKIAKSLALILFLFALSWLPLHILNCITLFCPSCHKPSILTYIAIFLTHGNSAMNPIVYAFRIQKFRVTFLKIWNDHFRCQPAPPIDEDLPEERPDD

[2] = molecular target: T1, adenosine A1 receptor (A1AR); assay: [3H]DPCPX radioligand displacement on CHO-hA1AR membranes with […] h or […] h preincubation (apparent pKi […] and […]), wash-out, gel labeling, pull-down LC-MS/MS; type: binding

Structure (SMILES): C#CCNc1nc(SCCCNC(=O)c2ccc(S(=O)(=O)F)cc2)c(C#N)c(-c2ccc3c(c2)OCO3)c1C#N [compound 1, 1]
- % displacement at 1 μM [1]: ~ 70

Structure (SMILES): C#CCN(CCCSc1nc(N)c(C#N)c(-c2ccc3c(c2)OCO3)c1C#N)C(=O)c1ccc(S(=O)(=O)F)cc1 [compound 4, LUF7909]
- Ki [2]: 16 nM
